Reference: patent US10597388B2, “Pyridazinone herbicides” (FMC CORPORATION, priority 2014, dated 2020)

Key:
Assay type in all cases: in vivo
[1] = system: pigweed (Amaranthus retroflexus); assay: Test A greenhouse herbicide test, pre- and postemergence
In short: (§1)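 Visual injury ratings, 0 (no effect) to 100 (complete control), versus untreated plants after roughly 10 d in a greenhouse. Compounds, formulated in a surfactant-containing non-phytotoxic solvent, were sprayed on loam–sand soil after sowing (pre) or on one- to two-leaf plants 2–10 cm tall (post).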

[2] = system: wheat (Triticum aestivum); assay: as above; conditions: Postemergence
In short: as §1

[3] = system: ryegrass, Italian (Italian ryegrass, Lolium multiflorum); assay: as above
In short: as §1

[4] = system: blackgrass (Alopecurus myosuroides); assay: Test A greenhouse herbicide test, postemergence
In short: (§2)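 Scores are visual injury ratings from 0 (no effect) to 100 (complete control) versus untreated plants, taken roughly 10 d after treatment in the greenhouse. Treatment was postemergence, on one- to two-leaf plants 2–10 cm high growing in a loam soil/sand mix.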

[5] = system: galium (catchweed bedstraw, Galium aparine); assay: Test A greenhouse herbicide test, postemergence
In short: as §2

[6] = system: morningglory (Ipomoea coccinea); assay: Test C greenhouse herbicide test, pre- and postemergence
In short: (§3)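 Percent-control ratings (0 none, 100 complete) came from visual comparison with controls held alongside in the greenhouse for 13–15 d. Treatments covered soil application at sowing and foliar application to young plants 2–18 cm tall.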

[7] = system: pigweed (Amaranthus retroflexus); assay: as above
In short: as §3

[8] = system: ragweed (common ragweed, Ambrosia elatior); assay: as above
In short: as §3

[9] = system: oilseed rape (Brassica napus); assay: as above
In short: as §3

[10] = system: waterhemp (common waterhemp, Amaranthus rudis); assay: as above
In short: as §3

[11] = system: lambsquarters (Chenopodium album); assay: as above
In short: as §3

[12] = Postemergence, 125 g ai/ha, 0 to 100 scale where 0 is no effect and 100 is complete control
[13] = Postemergence, 500 g ai/ha, visual rating after approx. 10 d, 0 to 100 scale (0 no effect, 100 complete control)
[14] = Preemergence, 500 g ai/ha, 0 to 100 scale where 0 is no effect and 100 is complete control
[15] = 125 g ai/ha, 0 to 100 scale where 0 is no effect and 100 is complete control
[16] = 500 g ai/ha, visual rating after approx. 10 d, 0 to 100 scale (0 no effect, 100 complete control)
[17] = Postemergence, 31 g ai/ha, scale 0 to 100 (0 no effect, 100 complete control)
[18] = Postemergence, 62 g ai/ha, 0 to 100 scale (0 no effect, 100 complete control)
[19] = Postemergence, 250 g ai/ha, scale 0 to 100, 0 no effect, 100 complete control, 13 to 15 d
[20] = Preemergence, 31 g ai/ha, scale 0 to 100, 0 is no effect, 100 is complete control
[21] = Preemergence, 62 g ai/ha, scale 0 to 100, 0 is no effect, 100 is complete control
[22] = Preemergence, 125 g ai/ha, scale 0 to 100, 0 is no effect, 100 is complete control
[23] = Preemergence, 250 g ai/ha, scale 0 to 100, 0 no effect, 100 complete control
[24] = postemergence, 125 g ai/ha, scale 0 to 100, 0 no effect, 100 complete control
[25] = Postemergence, 125 g ai/ha, 0 to 100 scale, 0 no effect, 100 complete control
[26] = Preemergence, 125 g ai/ha, visual injury rating, 0 to 100 scale (0 no effect, 100 complete control), approx. 10 d
[27] = 125 g ai/ha, 0 to 100 scale, 0 no effect, 100 complete control

In the case of `COC(=O)Oc1c(C)nn(C)c(=O)c1-c1ccc(Br)c2ccccc12` [Compound 145], the “Plant response rating, Pigweed” value [1, 12] is reported as 100, the “Plant response rating, Pigweed” value [1, 13] is reported as 100 and the “Pigweed plant response rating” value ([1]; Preemergence, 125 g ai/ha, 0 to 100 scale where 0 is no effect and 100 is complete control) is reported as 90. For the same compound, the “Plant response rating, Pigweed” value [1, 14] was 100, the “Plant response rating, Wheat” value [2, 15] was 20 and the “Plant response rating, Wheat” value [2, 16] was 30. The “Plant response rating, Ryegrass, Italian” value [3, 12] was 100, the “Plant response rating, Ryegrass, Italian” value [3, 13] was 100 and the “Plant response rating, Ryegrass, Italian” value [3, 14] was 100. For the same compound, the “Plant response rating, Blackgrass” value [4, 15] was 40, the “Plant response rating, Blackgrass” value [4, 16] was 80 and the “Plant response rating, Galium” value [5, 15] was 100. The “Plant response rating, Galium” value [5, 16] was 100, the “Plant response rating, Morningglory” value [6, 17] was 95 and the “Morningglory plant response rating” value [6, 18] was 98. For the same compound, the “Plant response rating, Morningglory” value [6, 19] was 100, the “Plant response rating, Morningglory” value [6, 20] was 75 and the “Plant response rating, Morningglory” value [6, 21] was 80. The “Plant response rating, Morningglory” value [6, 22] was 98, the “Morningglory plant response rating” value [6, 23] was 100 and the “Morningglory plant response rating” value [6, 24] was 100. For the same compound, the “Plant response rating, Pigweed” value [7, 17] was 70, the “Pigweed plant response rating” value [7, 18] was 100 and the “Plant response rating, Pigweed” value [7, 19] was 100. The “Plant response rating, Pigweed” value [7, 20] was 70, the “Plant response rating, Pigweed” value [7, 21] was 98 and the “Plant response rating, Pigweed” value [7, 22] was 100. For the same compound, the “Pigweed plant response rating” value [7, 23] was 100, the “Pigweed plant response rating” value [7, 24] was 75 and the “Plant response rating, Ragweed” value [8, 17] was 0. The “Ragweed plant response rating” value [8, 18] was 0, the “Plant response rating, Ragweed” value [8, 19] was 25 and the “Plant response rating, Ragweed” value [8, 20] was 55. For the same compound, the “Plant response rating, Ragweed” value [8, 21] was 65, the “Plant response rating, Ragweed” value [8, 22] was 85 and the “Ragweed plant response rating” value [8, 23] was 90. The “Ragweed plant response rating” value [8, 24] was 5, the “Plant response rating, Oilseed Rape” value [9, 17] was 98 and the “Oilseed Rape plant response rating” value [9, 18] was 98. For the same compound, the “Plant response rating, Oilseed Rape” value [9, 19] was 90, the “Plant response rating, Oilseed Rape” value [9, 20] was 5 and the “Plant response rating, Oilseed Rape” value [9, 21] was 90. The “Plant response rating, Oilseed Rape” value [9, 22] was 90, the “Oilseed Rape plant response rating” value [9, 23] was 98 and the “Oilseed Rape plant response rating” value [9, 24] was 95. The “Plant response rating, Waterhemp” value [10, 17] was 95, the “Waterhemp plant response rating” value [10, 18] was 100 and the “Plant response rating, Waterhemp” value [10, 19] was 100. For the same compound, the “Plant response rating, Waterhemp” value [10, 20] was 85, the “Plant response rating, Waterhemp” value [10, 21] was 98 and the “Plant response rating, Waterhemp” value [10, 22] was 98. For the same compound, the “Waterhemp plant response rating” value [10, 23] was 100, the “Waterhemp plant response rating” value [10, 24] was 100 and the “Plant response rating, Lambsquarters” value [11, 17] was 98. The “Lambsquarters plant response rating” value [11, 18] was 98, the “Plant response rating, Lambsquarters” value [11, 19] was 100 and the “Plant response rating, Lambsquarters” value [11, 20] was 90. The “Plant response rating, Lambsquarters” value [11, 21] was 90, the “Plant response rating, Lambsquarters” value [11, 22] was 100 and the “Lambsquarters plant response rating” value [11, 23] was 100. The “Lambsquarters plant response rating” value [11, 24] was 100.

In the case of `CC(=O)Oc1c(Cl)nn(C)c(=O)c1-c1c(C)sc2ccc(C(F)(F)F)cc12` [Compound 152], the “Plant response rating, Pigweed” value [1, 25] is reported as 50, the “Plant response rating, Pigweed” value [1, 13] is reported as 60 and the “Plant response rating, Pigweed” value [1, 26] is reported as 90. The “Plant response rating, Pigweed” value [1, 14] was 90, the “Plant response rating, Wheat” value [2, 27] was 30 and the “Plant response rating, Wheat” value [2, 16] was 50. The “Plant response rating, Ryegrass, Italian” value [3, 25] was 30, the “Plant response rating, Ryegrass, Italian” value [3, 13] was 90 and the “Plant response rating, Ryegrass, Italian” value [3, 26] was 90. The “Plant response rating, Ryegrass, Italian” value [3, 14] was 100, the “Plant response rating, Blackgrass” value [4, 27] was 20 and the “Plant response rating, Blackgrass” value [4, 16] was 30. For the same compound, the “Plant response rating, Galium” value [5, 27] was 60, the “Plant response rating, Galium” value [5, 16] was 70 and the “Plant response rating, Morningglory” value [6, 20] was 10. For the same compound, the “Plant response rating, Morningglory” value [6, 21] was 40, the “Plant response rating, Morningglory” value [6, 22] was 75 and the “Morningglory plant response rating” value [6, 23] was 90. For the same compound, the “Plant response rating, Pigweed” value [7, 20] was 80, the “Plant response rating, Pigweed” value [7, 21] was 100 and the “Plant response rating, Pigweed” value [7, 22] was 100. For the same compound, the “Pigweed plant response rating” value [7, 23] was 100, the “Plant response rating, Ragweed” value [8, 20] was 85 and the “Plant response rating, Ragweed” value [8, 21] was 40. For the same compound, the “Plant response rating, Ragweed” value [8, 22] was 75, the “Ragweed plant response rating” value [8, 23] was 90 and the “Plant response rating, Oilseed Rape” value [9, 20] was 50. For the same compound, the “Plant response rating, Oilseed Rape” value [9, 21] was 85, the “Plant response rating, Oilseed Rape” value [9, 22] was 95 and the “Oilseed Rape plant response rating” value [9, 23] was 100. The “Plant response rating, Waterhemp” value [10, 20] was 20, the “Plant response rating, Waterhemp” value [10, 21] was 85 and the “Plant response rating, Waterhemp” value [10, 22] was 85. For the same compound, the “Waterhemp plant response rating” value [10, 23] was 75, the “Plant response rating, Lambsquarters” value [11, 20] was 50 and the “Plant response rating, Lambsquarters” value [11, 21] was 75. The “Plant response rating, Lambsquarters” value [11, 22] was 90 and the “Lambsquarters plant response rating” value [11, 23] was 98.
